Assay results reported in patent US20200253959A1, “COMPOUNDS AND PHARMACEUTICAL COMPOSITIONS THEREOF FOR USE IN THE TREATMENT OF FIBROTIC DISEASES” (Galapagos NV, priority 2017, published 2020).
Where “and” joins values, the source holds several entries; their conditions need not be identical. Equal values may be shown once.

Columns and labels:
subjects with IPF [1] = experiment: Clinical study in IPF subjects: pulmonary function by spirometry (FVC); format: in vivo, human
Method: The study is a randomized, double-blind, parallel group, placebo-controlled, multicenter study to evaluate the test compound in subjects with IPF.
At baseline, after the subject's eligibility for the study has been confirmed, subjects are randomized in a 3:1 ratio test compound (600 mg q.d.) : matching placebo administered for 12 weeks.
Subjects receive 600 mg of test compound (3 capsules of 200 mg) or placebo q.d. for 12 weeks administered in the morning.
Pulmonary function will be assessed through spirometry both performed at the study center (at screening, baseline, and thereafter post dose at the time points indicated in the study schedule and according to sequence of study assessments) and at home (at baseline and thereafter post dose; on a daily basis in the morning). Specific instructions on how to perform the spirometry at home are provided in a separate spirometry user manual.
The following parameters will be measured as part of the spirometry assessment: • FEV1 (L) and percent predicted FEV1 • FVC (L) and percent predicted FVC • FEV1/FVC ratio • Forced expiratory flow (FEF) between 25 and 75% of exhaled volume (FEF25-75)

LPA 18:2 [2] = experiment: LPA 18:2 levels in blood samples of IPF subjects; format: in vivo, human; conditions: for LPA 18:2 % reduction: IPF patients, plasma
Method: (§1) Blood samples of 14 mL will be collected predose by venipuncture (or indwelling catheter for pharmacokinetic sampling days) in the arm at the time points indicated in the study flow chart and according to sequence of study assessments.
From the blood samples, the LPA 18:2 levels are determined using laboratory techniques.

[3] = Test compound plasma levels and PK parameters in IPF patients (LC-MS/MS, non-compartmental analysis); format: in vivo, human; conditions: for Compound I concentration: listed as Compound I
Method: The test compound plasma levels were determined by LC-MS/MS and PK parameters by non-compartmental analysis using Phoenix WinNonlin.

LPA 18:2 [4] = experiment: Human plasma assay for the reduction of LPA 18:2; format: biochemical
[5] = Compound plasma concentration in healthy volunteers (PK/PD correlation in plasma); format: in vivo, human; conditions: listed as Compound I
From the text: (§2) A first trial is a randomized, double-blind, placebo-controlled, single center study evaluating single ascending doses (SAD) and multiple ascending (MAD) doses of compound 1 in healthy male volunteers (see Van der Aar E M, 2016).

LPA C8:2 = experiment: Plasma LPA reduction in healthy volunteers (PK/PD correlation in plasma); format: in vivo, human
From the text: as §2

surfactant protein A = experiment: Biomarker analysis surfactant protein A in blood of IPF subjects; format: in vivo, human; conditions: following 12 weeks of treatment
Method: as §1
The following exploratory biomarkers are evaluated in blood samples: • KL-6/Muc1 • surfactant protein A and D • CCL18 • ATX • MMP1, MMP7 • markers of extracellular matrix (ECM) turnover (neoepitope assay)

subjects with IPF [6] = experiment: Functional respiratory imaging (FRI) from HRCT in IPF subjects; format: in vivo, human
From the text: HRCT will be performed (post dose if applicable) at the time points indicated in the study chart (see 1.4 above) and according to sequence of study assessments. HRCT scans will be used to generate FRI measurements allowing for an evaluation of regional IPF disease manifestation and disease progression. In case the subject is on bronchodilators, he/she can use the bronchodilator after the spirometry but prior to HRCT for FRI parameters.
At each computed tomography (CT) assessment an inspiratory and an expiratory scan will be taken. During the baseline visit an additional scan of the upper airway will be taken. The inspiratory and an expiratory scan will expose the subject to a total radiation dose of approximately 4-5 mSv per visit, including the initial CT localizer radiograph (topogram scout). The upper airway scan will expose a subject to approximately 1 mSv. A radiation dose of approximately 2-2.5 mSv is equivalent to approximately 1 year of background radiation (based on the assumption of an average “effective dose” from natural background radiation is of 3.1 mSv per year in the US and 2.4 mSv per year in Europe. (USNRC, 2014; WNA, 2015)
All CT images will be imported into Mimics, a commercial, medical image processing software package (Materialise, Leuven, Belgium, Food and Drug Administration, K073468; CE certificate, BE 05/1191 CE01) for analysis. This software package converts the HRCT images into patient specific, 3-dimensional computer models of the lung lobes, the airway lumen and wall, and the vascular tree. The airway and vascular tree are evaluated at functional residual capacity (FRC) and total lung capacity (TLC) level and can be segmented down to bronchi/vessels with a diameter of around 1-2 mm. Beyond this point the HRCT resolution is insufficient to distinguish alveolar and intraluminal air, or blood vessel tissue and surrounding lung tissues. A typical airway model includes 5-10 generations, depending mainly on the disease state of the individual patient. Afterwards the airway lumen models will be processed further to obtain a model that is suitable for flow calculations.
The following FRI parameters based on low-dose inspiratory-expiratory multi-slice CT images and computational fluid dynamics flow simulations will be evaluated. • lobar volumes at FRC and TLC • airway volumes at FRC and TLC • airway resistance • internal lobar airflow distribution • low attenuation or emphysema score at TLC • blood vessel density or fibrosis score at TLC • airway wall thickness at TLC • air trapping at FRC • mass of deposited particles per defined airway section

Compound I concentration ([3]; Week 4 - 0 h post-dose (second line so labelled, r10), plasma): 6557 nM and 3860 ng/mL | Compound I concentration ([3]; Week 4 - 0 h post-dose, plasma): 1020 nM and 604 ng/mL | Compound I concentration ([3]; Week 12 - 0 h post-dose, plasma): 1698 nM and 1000 ng/mL | AUC ([3]; human, plasma, oral, week 4, 600 mg q.d., read-out: mean area under the plasma concentration time curve for the dosing interval of 24 hours (AUC0-τ)): 55600 ng·h/mL | Cmax ([3]; human, plasma, oral, week 4, 600 mg q.d., read-out: median maximum observed plasma concentration (Cmax)): 6060 ng/mL | Tmax ([3]; human, plasma, oral, week 4, 600 mg q.d., read-out: median tmax): 4 h | trough plasma concentration (Cτ) ([3]; week 4, 600 mg q.d.): 604 ng/mL | IC50 in human plasma assay for the reduction of LPA 18:2 (LPA 18:2 [4]): 0.143 µg/mL | Compound I concentration ([5]; D 14 - 6 h post-dose): 6506 nM and 3830 ng/mL | Compound I concentration ([5]; D 14 - 24 h post-dose): 421 nM and 249 ng/mL
SMILES: CCc1nc2c(C)cc(N3CCN(CC(=O)N4CC(O)C4)CC3)cn2c1N(C)c1nc(-c2ccc(F)cc2)c(C#N)s1 [Compound 1]
FVC CFB (subjects with IPF [1]; 600 mg q.d., Week 4, IPF subjects): +116 mL | FVC CFB (subjects with IPF [1]; 600 mg q.d., Week 8, IPF subjects): +15 mL | FVC CFB (subjects with IPF [1]; 600 mg q.d., Week 12, IPF subjects, mean from baseline, listed as Cpd I): +8 mL | FVC CFB (subjects with IPF [1]; 600 mg q.d., Week 12, IPF subjects, mean from baseline, listed as compound according to Formula I): 8 mL | FVC CFB (subjects with IPF [1]; Follow up (2 weeks after last administration of 600 mg q.d.)): -55 mL | LPA18:2 percentage reduction (LPA 18:2 [2]; 600 mg q.d., Week 4, positive value = reduction): 52.48% | LPA18:2 percentage reduction (LPA 18:2 [2]; 600 mg q.d., Week 12, positive value = reduction): 67.48% | LPA18:2 percentage reduction (LPA 18:2 [2]; Follow up visit, negative value = increase in LPA levels): −34.36% | LPA 18:2 % reduction (LPA 18:2 [2]; Week 4 - 0 h post-dose (second line so labelled, r10)): 88% | LPA 18:2 % reduction (LPA 18:2 [2]; Week 4 - 0 h post-dose): 52% | LPA 18:2 % reduction (LPA 18:2 [2]; Week 12 - 0 h post-dose): 68% | LPA 18:2 levels after stopping the administration (in words) (LPA 18:2 [2]; after stopping administration): levels returning to or above baseline levels | LPA 18:2 levels on administration (in words) (LPA 18:2 [2]; during administration, 600 mg q.d.): stable decrease in LPA 18:2 levels | LPA C8:2 % reduction (LPA C8:2; D 14 - 6 h post-dose): 83% | LPA C8:2 % reduction (LPA C8:2; D 14 - 24 h post-dose): 66% | surfactant protein A in blood (in words) (surfactant protein A): statistically significant increase | Specific airway resistance (subjects with IPF [6]; Baseline, Compound 1 group): 0.11 kPa/sec | Specific airway volume (subjects with IPF [6]; Baseline, Compound 1 group): 3.92 mL/L | Specific airway resistance (subjects with IPF [6]; Week 12, 600 mg q.d.): 0.12 kPa/sec | Specific airway volume (subjects with IPF [6]; Week 12, 600 mg q.d.): 3.80 mL/L | airway resistance (in words) (subjects with IPF [6]; baseline vs Week 12): stabilization | airway volume (in words) (subjects with IPF [6]; baseline vs Week 12): stabilization
